Results on 13 molecules are retold here after US11484607B2, “PSMA-targeted NIR dyes and their uses” (On Target Laboratories, LLC, priority 2015, dated 2022).

A word on the Kd: it is the constant that tells how readily two partners part at equilibrium. High values mean a looser complex, low ones a tighter complex.

The target of series [1] is T1, PSMA (Homo sapiens, UniProt Q04609).
T1 construct: host or cells: 22Rv1 human prostate cancer cells
Nature of the series: Relative binding affinity of DUPA-NIR conjugates with respect to DUPA-FITC on 22Rv1 cells, flow cytometry. The following applies: for Kd: 1 h at 37° C., 100 nM DUPA-FITC; for affinity for PSMA (in words): in vitro binding affinity data. Here is the method: FIG. 3—Relative binding affinities of DUPA-NIR conjugates 1-9 with respect to DUPA-FITC (14). PSMA-positive 22Rv1 human prostate cancer cells were incubated for 1 h at 37° C. in the presence of 100 nM DUPA-FITC with increasing concentrations of DUPA-NIR conjugates. […] Cell bound fluorescence was assayed as using flow cytometry.
FIG. 6—Relative binding affinities of DUPA-NIR conjugates with aromatic amino acids linkers with respect to DUPA-FITC (14). PSMA-positive 22Rv1 human prostate cancer cells were incubated for 1 h at 37° C. in the presence of 100 nM DUPA-FITC with increasing concentrations of DUPA-NIR conjugates. […] Cell bound fluorescence was assayed as using flow cytometry.
FIG. 3 Relative binding affinities of DUPA-NIR conjugates 1-9 with respect to DUPA-FITC (14). PSMA-positive 22Rv1 human prostate cancer cells were incubated for 1 h at 37° C. in the presence of 100 nM DUPA-FITC with increasing concentrations of DUPA-NIR conjugates. […] Cell bound fluorescence was assayed as using flow cytometry.
in vitro studies. […] PSMA-positive 22Rv1 human prostate cancer cells were incubated for 1 h at 37° C. in the presence of 100 nM DUPA-FITC with increasing concentrations of DUPA-NIR conjugates. […] Cell bound fluorescence was assayed as using flow cytometry.
PSMA-positive 22Rv1 human prostate cancer cells were incubated for 1 h at 37° C. in the presence of 100 nM DUPA-FITC with increasing concentrations of DUPA-NIR conjugates. […] Cell bound fluorescence was assayed as using flow cytometry.
FIG. 24: Relative binding affinities of DUPA-NIR conjugates with respect to DUPA-FITC (14). PSMA-positive 22Rv1 human prostate cancer cells were incubated for 1 h at 37° C. in the presence of 100 nM DUPA-FITC with increasing concentrations of DUPA-NIR conjugates. […] Cell bound fluorescence was assayed as using flow cytometry.
PSMA-positive 22Rv1 human prostate cancer cells were incubated for 1 h at 37° C. in the presence of 100 nM DUPA-FITC with increasing concentrations of DUPA-NIR conjugates. […] Cell bound fluorescence was assayed as using flow cytometry
Cancer cells were incubated for 1 h at 37° C. in the presence of 100 nM DUPA-FITC with increasing concentrations of compound 15. […] Cell bound fluorescence was assayed as using flow cytometry.

Series [2] concerns human prostate tumor xenografts (22Rv1 cells). Nature of the series: Tissue biodistribution and tumor-to-tissue fluorescence ratio of DUPA-NIR conjugates, IVIS imaging. In kind it is in vivo, mice. As to conditions: 2 h after tail vein injection. On the procedure:
In vivo studies. More specifically, biodistribution of DUPA-NIR conjugates 1-9 was monitored using fluorescence imaging of mice bearing human prostate tumor xenografts (22Rv1 cells). Male nude mice with 22Rv1 tumor xenografts were injected with DUPA-NIR dye conjugates via tail vein. The mice were euthanized 2 h after administration of the DUPA-NIR dye conjugate, selected tissues were harvested, and tissues were imaged with IVIS imager (ex=745 nm, em=ICG, exposure time=1 s).
The conjugates were also tested to show the ratio of tumor-to-tissue fluorescence. […] After imaging, fluorescence within a Region of interest (ROI) was measured for each tissue using In Vivo imaging software and tumor-to-tissue fluorescence was then calculated
in vivo studies. […] Male nude mice with 22Rv1 tumor xenografts were injected with DUPA-NIR dye conjugates via tail vein. The mice were euthanized 2 h after administration of the DUPA-NIR dye conjugate, selected tissues were harvested, and tissues were imaged with IVIS imager (ex=745 nm, em=ICG, exposure time=1 s). After imaging, fluorescence within a Region of interest (ROI) was measured for each tissue using In Vivo imaging software and tumor-to-tissue fluorescence was then calculated.
Male nude mice with 22Rv1 tumor xenografts were injected with DUPA-NIR dye conjugates via tail vein. The mice were euthanized 2 h after administration of the DUPA-NIR dye conjugate, selected tissues were harvested, and tissues were imaged with IVIS imager (ex=745 nm, em=ICG, exposure time=1 s). After imaging, fluorescence within a Region of interest (ROI) was measured for each tissue using In Vivo imaging software and tumor-to-tissue fluorescence was then calculated.
In vivo studies. […] Male nude mice with 22Rv1 tumor xenografts were injected with DUPA-NIR dye conjugates via tail vein. The mice were euthanized 2 h after administration of the DUPA-NIR dye conjugate, selected tissues were harvested, and tissues were imaged with IVIS imager (ex=745 nm, em=ICG, exposure time=1 s). After imaging, fluorescence within a Region of interest (ROI) was measured for each tissue using In Vivo imaging software and tumor-to-tissue fluorescence was then calculated.

For series [3], the system named is basophils. Nature of the series: Basophil activation test (Flow CAST) in human blood samples. In kind it is cell-based. Here is the method:
Tolerability Studies: The blood samples were collected into hirudin tubes and used within an hour of collection. For each donor, 4 different tubes were prepared for allergen, positive controls, and negative control. Samples were analyzed using Flow CAST® high sensitivity Basophil Activation Test (BAT). Briefly, stimulation buffer (100 μL, background) or anti-FcεER antibody (100 μL) or fMLP (100 μL) or OTL78 (75 μM in 100 μL of saline) was added to tubes containing stimulation buffer (200 μL). 100 μL of blood was added to each tube and mixed gently. After adding staining reagent (40 μL) containing anti-CD63-CD203c-PE-DY647 and anti-CCR3-PE, each tube was mixed gently and incubated for 15 minutes at 37° C. Lysing reagent (2 mL) was added to each tube, mixed gently, incubated for 5-10 minutes at room temperature, and centrifuged for 5 minutes at 500×g. The supernatant was discarded and the cells were re-suspended in wash buffer (900 μL) and analyzed using flow cytometry. CD63-CD203c-PE-DY647+/CCR3-PE+ cell population considered as the activated basophils.

The mark [4] stands for this setting: conjugates with variable length spacers.
[5] abbreviates: Example 5, variably charged NIR dye.

T1 sequence (Q04609 whole entry): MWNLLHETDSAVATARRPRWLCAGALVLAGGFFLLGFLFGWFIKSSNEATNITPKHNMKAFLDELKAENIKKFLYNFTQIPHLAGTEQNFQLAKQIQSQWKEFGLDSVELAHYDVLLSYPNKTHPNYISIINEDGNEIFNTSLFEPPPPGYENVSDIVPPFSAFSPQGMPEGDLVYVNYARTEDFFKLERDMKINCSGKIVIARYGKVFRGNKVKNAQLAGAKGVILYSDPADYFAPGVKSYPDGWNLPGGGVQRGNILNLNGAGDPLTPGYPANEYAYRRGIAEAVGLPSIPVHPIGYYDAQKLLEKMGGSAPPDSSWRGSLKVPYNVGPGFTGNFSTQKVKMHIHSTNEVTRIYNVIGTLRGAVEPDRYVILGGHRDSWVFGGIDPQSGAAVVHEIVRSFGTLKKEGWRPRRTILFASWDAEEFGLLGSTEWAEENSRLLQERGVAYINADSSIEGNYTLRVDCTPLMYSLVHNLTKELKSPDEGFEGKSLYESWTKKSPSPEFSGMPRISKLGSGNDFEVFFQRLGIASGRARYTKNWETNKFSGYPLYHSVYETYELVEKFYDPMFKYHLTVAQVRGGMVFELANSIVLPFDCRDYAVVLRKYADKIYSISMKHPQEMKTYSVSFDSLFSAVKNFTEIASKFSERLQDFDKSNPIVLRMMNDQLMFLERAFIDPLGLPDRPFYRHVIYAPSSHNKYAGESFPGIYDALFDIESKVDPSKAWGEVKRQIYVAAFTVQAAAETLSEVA

For the molecule `CC1(C)C(/C=C/C2=C(Oc3ccc(C[C@H](NC(=O)CCCCCCCNC(=O)CC[C@H](NC(=O)N[C@@H](CCC(=O)O)C(=O)O)C(=O)O)C(=O)O)cc3)C(=C/C=C3/N(CCCCS(=O)(=O)O)c4ccc(S(=O)(=O)O)cc4C3(C)C)/CCC2)=[N+](CCCCS(=O)(=O)[O-])c2ccc(S(=O)(=O)O)cc21` [Compound 4, DUPA-EAOA-Tyr-S0456], the Kd in series [1] (setting [4]) was found to be 15.2 nM. In series [1], the “affinity for PSMA (in words)” value is on record as “very high affinity”. For the same molecule, in series [2], the “fluorescence intensity in the tumor / tumor accumulation” value is on record as “higher fluorescence intensity” and the “tumor-to-background ratio (TBR), in words” value (“tumor-to-background ratio” for short) was “best”.

`CC1(C)C(/C=C/C2=C(Oc3ccc(C[C@H](NC(=O)CCCCCCCNC(=O)[C@H](Cc4ccccc4)NC(=O)[C@H](Cc4ccccc4)NC(=O)CC[C@H](NC(=O)N[C@@H](CCC(=O)O)C(=O)O)C(=O)O)C(=O)O)cc3)C(=C/C=C3/N(CCCCS(=O)(=O)O)c4ccc(S(=O)(=O)O)cc4C3(C)C)/CCC2)=[N+](CCCCS(=O)(=O)[O-])c2ccc(S(=O)(=O)O)cc21` [Compound 6] came in with a Kd in series [1] (setting [4]) of 35.7 nM. In series [2], the “fluorescence intensity in the tumor / tumor accumulation” value is given as “lower” and the “tumor-to-background ratio” value was “second”.

`CC1(C)C(/C=C/C2=C(Oc3ccc(C[C@H](NC(=O)CCCCCCCNC(=O)[C@H](Cc4ccccc4)NC(=O)[C@H](Cc4ccccc4)NC(=O)C[C@H](NC(=O)CC[C@H](NC(=O)N[C@@H](CCC(=O)O)C(=O)O)C(=O)O)C(=O)O)C(=O)O)cc3)C(=C/C=C3/N(CCCCS(=O)(=O)O)c4ccc(S(=O)(=O)O)cc4C3(C)C)/CCC2)=[N+](CCCCS(=O)(=O)[O-])c2ccc(S(=O)(=O)O)cc21` [Compound 7] yielded a Kd in series [1] (setting [4]) of 26.8 nM. Moreover, in series [2], the “fluorescence intensity in the tumor / tumor accumulation” value is given as “lower” and the “tumor-to-background ratio” value was “third best”.

`CC1(C)C(/C=C/C2=C(Oc3ccc(C[C@H](NC(=O)CCCCCCCNC(=O)[C@H](Cc4ccccc4)NC(=O)[C@H](Cc4ccccc4)NC(=O)CCCCCCCNC(=O)CC[C@H](NC(=O)N[C@@H](CCC(=O)O)C(=O)O)C(=O)O)C(=O)O)cc3)C(=C/C=C3/N(CCCCS(=O)(=O)O)c4ccc(S(=O)(=O)O)cc4C3(C)C)/CCC2)=[N+](CCCCS(=O)(=O)[O-])c2ccc(S(=O)(=O)O)cc21` [Compound 34]: in series [1] (conjugates with aromatic linkers), the Kd is 34.9 nM.

Molecule `CC1(C)C(/C=C/C2=C(Oc3ccc(C[C@H](NC(=O)[C@H](Cc4ccccc4)NC(=O)CCCCCCCNC(=O)CC[C@H](NC(=O)N[C@@H](CCC(=O)O)C(=O)O)C(=O)O)C(=O)O)cc3)C(=C/C=C3/N(CCCCS(=O)(=O)O)c4ccccc4C3(C)C)/CCC2)=[N+](CCCCS(=O)(=O)[O-])c2ccccc21` [Compound 54] returned a Kd in series [1] (setting [5]) of 2.6 nM. This lies in the single-digit nanomolar range.

Molecule `CN1/C(=C/C=C2\CCCC(/C=C/C3=[N+](C)c4ccccc4C3(C)C)=C2Oc2ccc(C[C@H](NC(=O)[C@H](Cc3ccccc3)NC(=O)CCCCCCCNC(=O)CC[C@H](NC(=O)N[C@@H](CCC(=O)O)C(=O)O)C(=O)O)C(=O)O)cc2)C(C)(C)c2ccccc21` [Compound 55] showed a Kd in series [1] (setting [5]) of 7.3 nM. In addition, the “affinity for PSMA (in words)” value in series [1] is “very high affinity”.

In the case of `CN1/C(=C/C=C2\CCCC(/C=C/C3=[N+](C)c4ccc(S(=O)(=O)[O-])cc4C3(C)C)=C2Oc2ccc(C[C@H](NC(=O)[C@H](Cc3ccccc3)NC(=O)CCCCCCCNC(=O)CC[C@H](NC(=O)N[C@@H](CCC(=O)O)C(=O)O)C(=O)O)C(=O)O)cc2)C(C)(C)c2cc(S(=O)(=O)O)ccc21` [Compound 56], the Kd in series [1] (setting [5]) amounted to 3.7 nM. For the same molecule, the “affinity for PSMA (in words)” value in series [1] is reported as “very high affinity”.

In turn, `CC1(C)C(/C=C/C2=C(Oc3ccc(C[C@H](NC(=O)[C@H](Cc4ccccc4)NC(=O)CCCCCCCNC(=O)CC[C@H](NC(=O)N[C@@H](CCC(=O)O)C(=O)O)C(=O)O)C(=O)O)cc3)C(=C/C=C3/N(CCC[N+](C)(C)C)c4ccccc4C3(C)C)/CCC2)=[N+](CCC[N+](C)(C)C)c2ccccc21` [Compound 59] showed a Kd in series [1] (setting [5]) of 60.9 nM.

Consider `CC1(C)C(/C=C/C2=C(Oc3ccc(C[C@H](NC(=O)[C@H](Cc4ccccc4)NC(=O)CCCCCCCNC(=O)CC[C@H](NC(=O)N[C@@H](CCC(=O)O)C(=O)O)C(=O)O)C(=O)O)cc3)C(=C/C=C3/N(CCC[N+](C)(C)C)c4ccc(S(=O)(=O)O)cc4C3(C)C)/CCC2)=[N+](CCC[N+](C)(C)C)c2ccc(S(=O)(=O)O)cc21` [Compound 60], for which, in series [1] (setting [5]), binding was characterised by a dissociation constant (Kd) of 5.4 nM. This Kd lies about 11-fold lower than the previous one.

As for `CC1(C)C(=CC=C2CCOC(C=CC3=[N+](CCCCS(=O)(=O)[O-])c4ccc(S(=O)(=O)O)cc4C3(C)C)=C2c2ccc(C(=O)NCCNC(=O)C(Cc3ccccc3)NC(=O)CCCCCCCNC(=O)CCC(NC(=O)NC(CCC(=O)O)C(=O)O)C(=O)O)cc2)N(CCCCS(=O)(=O)O)c2ccc(S(=O)(=O)O)cc21` (stereo not shown) [Compound 62], the “affinity for PSMA (in words)” value in series [1] is listed as “low affinity”.

`CC1(C)C(=CC=C2CCCC(C=CC3=[N+](CCCCS(=O)(=O)[O-])c4ccccc4C3(C)C)=C2Oc2ccc(CC(NC(=O)C(CCCNC(=N)N)NC(=O)C(Cc3ccccc3)NC(=O)CCCCCCCNC(=O)CCC(NC(=O)NC(CCC(=O)O)C(=O)O)C(=O)O)C(=O)O)cc2)N(CCCCS(=O)(=O)O)c2ccccc21` (stereo not shown) [Compound 65]: the “affinity for PSMA (in words)” value in series [1] is “low affinity”.

With `CC1(C)C(=CC=C2CCCC(C=CC3=[N+](CCCCS(=O)(=O)[O-])c4ccccc4C3(C)C)=C2Oc2ccc(CC(NC(=O)C(CCCNC(=N)N)NC(=O)C(CCCNC(=N)N)NC(=O)CCCCCCCNC(=O)CCC(NC(=O)NC(CCC(=O)O)C(=O)O)C(=O)O)C(=O)O)cc2)N(CCCCS(=O)(=O)O)c2ccccc21` (stereo not shown) [Compound 66], the “affinity for PSMA (in words)” value in series [1] was “low affinity”.

Take `CSCC[C@H](NC=O)C(=O)N[C@@H](CC(C)C)C(=O)N[C@@H](Cc1ccccc1)C(=O)O` [fMLP, N-formylmethionyl-leucyl-phenylalanine]: in series [3] (FIG. 47E), the “positive response (% activated basophils)” value was 73.5%. The “stimulated index” value in series [3] (FIG. 47E, ≥2 considered positive response) was found to be 29.5. Further, the “Percent of basophile activation, Avg” value in series [3] (average of 3 healthy subjects) is on record as 60%. In series [3] (healthy subjects, OTL78 75 μM), the “Percent of basophile activation, Subject 1” value amounted to 73.5%; the “Percent of basophile activation, Subject 2” value worked out at 55.9%; the “Percent of basophile activation, Subject 3” value is 50.6%. Further, in series [3] (stimulation index, ≥2 considered positive response), the “SI = Avg/background” value was 23.1.
